Experimental data from ChEMBL document CHEMBL5505992, “Novel membrane-targeting isoxanthohumol-amine conjugates for combating methicillin-resistant Staphylococcus aureus (MRSA) infections” (Eur J Med Chem, 2024).
Converted amounts (≈) assume the structure as drawn.

Assays:
Staphylococcus aureus [1] = assay: Antibacterial activity against methicillin-resistant Staphylococcus aureus clinical isolate MRSA-14 measured after 16 to 18 hrs by CLSI method; format: functional; conditions: time 16-18 hrs
Staphylococcus aureus [2] = assay: Antibacterial activity against Staphylococcus aureus ATCC 29213 measured after 16 to 18 hrs by CLSI method; format: functional; conditions: time 16-18 hrs
Staphylococcus aureus [3] = assay: Antibacterial activity against methicillin-resistant Staphylococcus aureus clinical isolate MRSA-16 measured after 16 to 18 hrs by CLSI method; format: functional; conditions: time 16-18 hrs
Staphylococcus aureus [4] = assay: Antibacterial activity against methicillin-resistant Staphylococcus aureus clinical isolate MRSA-17 measured after 16 to 18 hrs by CLSI method; format: functional; conditions: time 16-18 hrs
Escherichia coli = assay: Antibacterial activity against Escherichia coli ATCC25922 measured after 16 to 18 hrs by CLSI method; format: functional; conditions: time 16-18 hrs
Staphylococcus aureus [5] = assay: Antibacterial activity against methicillin-resistant Staphylococcus aureus clinical isolate MRSA-20 measured after 16 to 18 hrs by CLSI method; format: functional; conditions: time 16-18 hrs
Staphylococcus aureus [6] = assay: Antibacterial activity against methicillin-resistant Staphylococcus aureus clinical isolate MRSA-23 measured after 16 to 18 hrs by CLSI method; format: functional; conditions: time 16-18 hrs
Staphylococcus aureus [7] = assay: Antibacterial activity against methicillin-resistant Staphylococcus aureus clinical isolate MRSA-13 measured after 16 to 18 hrs by CLSI method; format: functional; conditions: time 16-18 hrs
Staphylococcus aureus [8] = assay: Antibacterial activity against methicillin-resistant Staphylococcus aureus clinical isolate MRSA-21 measured after 16 to 18 hrs by CLSI method; format: functional; conditions: time 16-18 hrs
Staphylococcus aureus [9] = assay: Antibacterial activity against methicillin-resistant Staphylococcus aureus clinical isolate MRSA-18 measured after 16 to 18 hrs by CLSI method; format: functional; conditions: time 16-18 hrs
Staphylococcus aureus [10] = assay: Antibacterial activity against methicillin-resistant Staphylococcus aureus clinical isolate MRSA-22 measured after 16 to 18 hrs by CLSI method; format: functional; conditions: time 16-18 hrs
Staphylococcus aureus [11] = assay: Antibacterial activity against methicillin-resistant Staphylococcus aureus clinical isolate MRSA-11 measured after 16 to 18 hrs by CLSI method; format: functional; conditions: time 16-18 hrs
[12] = Hemolytic activity in sheep erythrocytes incubated for 1 hr by absorbance based analysis; format: toxicity, cell-based, Ovis aries, Erythrocyte
[13] = Selectivity index, ratio of HC50 for hemolytic activity in sheep erythrocytes to MIC for antibacterial activity against Staphylococcus aureus ATCC 29213; format: toxicity, cell-based; conditions: read-out: Selectivity Index

Row | SMILES | MIC (Staphylococcus aureus [1]) [µg/mL] | MIC (Staphylococcus aureus [2]) [µg/mL] | MIC (Staphylococcus aureus [3]) [µg/mL] | MIC (Staphylococcus aureus [4]) [µg/mL] | MIC (Escherichia coli) [µg/mL] | MIC (Staphylococcus aureus [5]) [µg/mL] | MIC (Staphylococcus aureus [6]) [µg/mL] | MIC (Staphylococcus aureus [7]) [µg/mL] | MIC (Staphylococcus aureus [8]) [µg/mL] | MIC (Staphylococcus aureus [9]) [µg/mL] | MIC (Staphylococcus aureus [10]) [µg/mL] | MIC (Staphylococcus aureus [11]) [µg/mL] | HC50 at 1 h [12] [µg/mL] | selectivity ratio [13]
1 | COc1cc(OCCCN(CC(C)C)CC(C)C)c(CC=C(C)C)c2c1C(=O)CC(c1ccc(OCCCN(CC(C)C)CC(C)C)cc1)O2 (configuration not stated) | 64 (≈ 92.3 µM) | > 128 | > 128 | > 128 | > 128 | > 128 | 32 (≈ 46.2 µM) | > 128 | 32 (≈ 46.2 µM) | > 128 | 32 (≈ 46.2 µM) | 64 (≈ 92.3 µM) | > 1280 | 
2 | COc1cc(OCCCCN2CCCCC2C)c(CC=C(C)C)c2c1C(=O)CC(c1ccc(OCCCCN3CCCCC3C)cc1)O2 (configuration not stated) | 16 (≈ 24.2 µM) | 32 (≈ 48.4 µM) | 32 (≈ 48.4 µM) | 16 (≈ 24.2 µM) | > 128 | 32 (≈ 48.4 µM) | 32 (≈ 48.4 µM) | 32 (≈ 48.4 µM) | 32 (≈ 48.4 µM) | 32 (≈ 48.4 µM) | 16 (≈ 24.2 µM) | 8 (≈ 12.1 µM) | 275 | > 8.6
3 | COc1cc(OCCCCN2CCSCC2)c(CC=C(C)C)c2c1C(=O)CC(c1ccc(OCCCCN3CCSCC3)cc1)O2 (configuration not stated) | > 128 | 64 (≈ 95.7 µM) | > 128 | > 128 | > 128 | > 128 | > 128 | > 128 | > 128 | > 128 | > 128 | > 128 | > 640 | > 10
4 | COc1cc(OCCCCCN2CCOCC2)c(CC=C(C)C)c2c1C(=O)CC(c1ccc(OCCCCCN3CCOCC3)cc1)O2 (configuration not stated) | 16 (≈ 24.1 µM) | 16 (≈ 24.1 µM) | 16 (≈ 24.1 µM) | 16 (≈ 24.1 µM) | > 128 | 16 (≈ 24.1 µM) | 16 (≈ 24.1 µM) | 16 (≈ 24.1 µM) | 16 (≈ 24.1 µM) | 16 (≈ 24.1 µM) | 8 (≈ 12 µM) | 16 (≈ 24.1 µM) | > 1280 | > 80
5 | CCCN(CCC)CCCCCOc1ccc(C2CC(=O)c3c(OC)cc(OCCCCCN(CCC)CCC)c(CC=C(C)C)c3O2)cc1 (configuration not stated) | 8 (≈ 11.5 µM) | 8 (≈ 11.5 µM) | 8 (≈ 11.5 µM) | 8 (≈ 11.5 µM) | > 128 | 8 (≈ 11.5 µM) | 16 (≈ 23.1 µM) | 8 (≈ 11.5 µM) | 8 (≈ 11.5 µM) | 16 (≈ 23.1 µM) | 8 (≈ 11.5 µM) | 8 (≈ 11.5 µM) | 331 | 41.4
6 | COc1cc(OCCCN2CCC(C)CC2)c(CC=C(C)C)c2c1C(=O)CC(c1ccc(OCCCN3CCC(C)CC3)cc1)O2 (configuration not stated) | 16 (≈ 25.3 µM) | 16 (≈ 25.3 µM) | 16 (≈ 25.3 µM) | 16 (≈ 25.3 µM) | > 128 | 16 (≈ 25.3 µM) | 32 (≈ 50.6 µM) | 16 (≈ 25.3 µM) | 16 (≈ 25.3 µM) | 16 (≈ 25.3 µM) | 16 (≈ 25.3 µM) | 16 (≈ 25.3 µM) | > 1280 | > 80
7 | COc1cc(OCCCN2CCCC(C)C2)c(CC=C(C)C)c2c1C(=O)CC(c1ccc(OCCCN3CCCC(C)C3)cc1)O2 (configuration not stated) | 16 (≈ 25.3 µM) | 16 (≈ 25.3 µM) | 16 (≈ 25.3 µM) | 8 (≈ 12.6 µM) | > 128 | 16 (≈ 25.3 µM) | 32 (≈ 50.6 µM) | 16 (≈ 25.3 µM) | 32 (≈ 50.6 µM) | 16 (≈ 25.3 µM) | 16 (≈ 25.3 µM) | 32 (≈ 50.6 µM) | > 1280 | > 80
8 | C[C@@H](O)[C@H]1C(=O)N2C(C(=O)O)=C(S[C@@H]3CN[C@H](C(=O)N(C)C)C3)[C@H](C)[C@H]12 [MEROPENEM] |  |  |  |  | 0.062 (≈ 0.162 µM) |  |  |  |  |  |  |  |  | 
9 | COc1cc(OCCCCN(CC(C)C)CC(C)C)c(CC=C(C)C)c2c1C(=O)CC(c1ccc(OCCCCN(CC(C)C)CC(C)C)cc1)O2 (configuration not stated) | > 128 | > 128 | > 128 | > 128 | > 128 | > 128 | > 128 | > 128 | > 128 | > 128 | > 128 | > 128 | > 1280 | 
10 | COc1cc(OCCCN2CCSCC2)c(CC=C(C)C)c2c1C(=O)CC(c1ccc(OCCCN3CCSCC3)cc1)O2 (configuration not stated) | > 128 | > 128 | > 128 | > 128 | > 128 | > 128 | > 128 | > 128 | > 128 | > 128 | > 128 | > 128 | > 640 | 
11 | COc1cc(O)c(CC=C(C)C)c2c1C(=O)CC(c1ccc(O)cc1)O2 (configuration not stated) [ISOXANTHOHUMOL] | > 64 | > 64 | 64 (≈ 181 µM) | > 64 | > 64 | 64 (≈ 181 µM) | 64 (≈ 181 µM) | > 64 | 64 (≈ 181 µM) | > 64 | 64 (≈ 181 µM) | 64 (≈ 181 µM) | > 320 | 
